Earlier results, collected in patent publication US11878022B2 (Novitium Pharma LLC, priority 2020, dated 2024).

Assays:
[1] = in vivo
[2] = in vivo; remark: listed apart in the source

## NS(=O)(=O)c1cc2c(cc1Cl)NCNS2(=O)=O [Hydrochlorothiazide, 6-Chloro-3,4-dihydro-2H-1,2,4-benzothiadiazine-7-sulfonamide-1,1-dioxide]
[1]
  Onset of action after dosing: ≤ 2 h
  persistence of activity: up to 24 hours
  time of peak effect: about 4 hours
[2]
  Binding to serum proteins: 40-68%
[2]; po
  absorbed dose excreted in urine as unchanged drug: greater than 95%
